Data: patent EP1100483B1, “GLUCOCORTICOID-SELECTIVE ANTI-INFLAMMATORY AGENTS” (Abbott Laboratories, priority 1998, dated 2000)

molecular target: T1, human progesterone receptor-A [PRA] isoform (Homo sapiens, UniProt P06401); experiment: progesterone receptor cytosol (PR) binding assay, [3H]-progesterone competition; details: [3H]Prog ~0.8 nM, 4 °C overnight, Cheng-Prusoff
T1 construct: purchased Ligand Pharmaceuticals (San Diego, CA); host or cells: insect SF21 cells (baculovirus)
T1 sequence (P06401 1-769 isoform P06401-2): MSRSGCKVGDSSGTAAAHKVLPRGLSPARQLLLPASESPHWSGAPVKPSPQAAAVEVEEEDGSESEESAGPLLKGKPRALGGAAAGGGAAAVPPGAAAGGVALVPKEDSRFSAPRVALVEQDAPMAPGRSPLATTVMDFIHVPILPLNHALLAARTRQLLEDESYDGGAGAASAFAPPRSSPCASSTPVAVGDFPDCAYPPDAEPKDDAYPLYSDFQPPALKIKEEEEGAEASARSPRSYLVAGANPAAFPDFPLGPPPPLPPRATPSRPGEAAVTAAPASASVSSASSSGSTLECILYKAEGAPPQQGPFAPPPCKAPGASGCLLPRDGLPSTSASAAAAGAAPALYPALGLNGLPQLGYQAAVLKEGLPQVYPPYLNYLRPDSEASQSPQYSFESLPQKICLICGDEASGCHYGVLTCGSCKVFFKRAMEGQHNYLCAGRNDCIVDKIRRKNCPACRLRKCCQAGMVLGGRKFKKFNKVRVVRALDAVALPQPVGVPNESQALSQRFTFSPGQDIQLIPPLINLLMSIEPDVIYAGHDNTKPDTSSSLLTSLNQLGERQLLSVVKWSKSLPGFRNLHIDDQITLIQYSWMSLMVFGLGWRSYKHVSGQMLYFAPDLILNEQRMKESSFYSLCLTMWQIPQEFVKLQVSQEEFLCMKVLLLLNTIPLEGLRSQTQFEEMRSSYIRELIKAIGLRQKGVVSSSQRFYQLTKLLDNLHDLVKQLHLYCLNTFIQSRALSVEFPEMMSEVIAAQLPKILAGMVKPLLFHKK
Source text: For glucocorticoid receptor (OR) cytosol binding assays, the procedure described in Anal. Biochem. 1970, 37, 244-252, hereby incorporated by reference, was used. Briefly, cytosol preparations of human glucocorticoid receptor-α [GRX] isoform and human progesterone receptor-A [PRA] isoform were obtained from Ligand Pharmaceuticals (San Diego, CA). Both receptor cDNAs were cloned into baculovirus expression vectors and expressed in insect SF21 cells. [^3H]-dexamethasone (Dex, specific activity 82-86 Ci/mmole) and [^3H]-progesterone (Prog, specific activity 97-102 Ci/mmol) were purchased from Amersham Life Sciences (Arlington Heights, IL). Glass fiber type C multiscreen MAFC NOB plates were from Millipore ( Burlington, MA). Hydroxyapatide Bio-Gel HTP gel was obtained from Bio-Rad Laboratories (Hercules. CA). Tris(hydroxymethyl)aminomethane (Tris), ethylenediaminetetraacetic acid (EDTA), glycerol, dithiothreitol (DTT) and sodium moylybdate were obtained from Sigma Chemicals (St. Louis, MO). Microscint-20 scintillation fluid was obtained from Packard Instrument (Meriden, CT).
Stock solutions (32 mM) of compounds were prepared in dimethylsulfoxide (DMSO), and 50X solutions of test compounds were prepared from the 32 mM solution with a 50:50 mixture of DMSO/ethanol. The 50X solution was then diluted with binding buffer that contained 10 mM Tri-HCl, 1.5 mM EDTA, 10% glycerol, 1 mM DTT, 20 mM sodium molybdate. pH 7.5 at 4 °C. 1% DMSO/ethanol was also present in the binding assay.
For progesterone receptor cytosol (PR) binding assays, [^3H]Prog (~36,000 dpm (∼0.8 nM)), PRA cytosol (~40 µg protein), test compounds and binding buffer were mixed in a total volume of 200 µL and incubated at 4 °C overnight in a plate shaker. Specific binding was defined as the difference between binding of [^3H]Prog in the absence and in the presence of 3 µM unlabeled Prog.
After an overnight incubation, 50 µL of hydroxyapatite (25 % weight/volume) slurry were added to each well and plates were incubated for 10 min at 4 °C in a plate shaker. Plates were suctioned with a Millipore vacuum manifold and each well was rinsed with 300 µL of ice-cold binding buffer. A 250 µL aliquot of Packard Microscint-20 was added to each well and the wells were shaken at room temperature for 20 minutes. The amount of radioactivity was determined with a Packard TopCount plate reader.
The Ki of test compounds was determined using the Cheng-Prusoff equation Ki =IC50/(1+[L*]/[KL]) where L* is the concentration of radioligand and KL is the dissociation constant of the radioligand determined from saturation analysis. For GRX, KL was ∼1.5 nM, and for PRA, KL was ~4.5 nM.

| SMILES | Ki |
| --- | --- |
| CC(=O)OCCN(C)c1ccc(C(c2ccc(N(C)CCOC(C)=O)cc2)c2cc([N+](=O)[O-])ccc2Cl)cc1 [Example 31, 4',4" bis(N-(2-acetoxyethyl) N-methylamino)-2-chloro-5-nitrotriphenylmethane] | 2680 nM |
| CNc1ccc(C(c2ccc(N(C)CCOC(C)=O)cc2)c2cc([N+](=O)[O-])ccc2Cl)cc1 (stereo not shown) [Example 49, 4'-methylamino-4"-(N-(2-acetoxyethyl)-N-methylamino)-2-chloro-5-nitrotriphenylmethane] | 241 nM |
| CN(CCO)c1ccc(C(c2ccc(N(C)CCO)cc2)c2cc([N+](=O)[O-])ccc2Cl)cc1 [Example 32, 4',4" bis(N-(2-hydroxyethyl) N-methylamino)-2-chloro-5-nitrotriphenylmethane] | 536 nM |
| CN(C)c1ccc(C(c2ccc(N(C)C)cc2)c2cc(Cl)ccc2Cl)cc1 [Example 24, 4',4" bis(dimethylamino)-2,5-dichlorotriphenylmethane] | 2590 nM |
| CC(=O)OCCN(C)c1ccc(C(c2ccc(N(C)C)cc2)c2cc([N+](=O)[O-])ccc2Cl)cc1 (stereo not shown) [Example 51, 4'-dimethylamino-4"-(N-methyl-N-(2-acetoxyethyl)amino)-2-chloro-5-nitrotriphenylmethane] | 1080 nM |
| CN(C)c1ccc(C(c2ccc(N(C)C)cc2)c2cc([N+](=O)[O-])ccc2Cl)cc1 [Example 1, 4',4" bis(dimethylamino)-2-chloro-5-nitrotriphenylmethane] | > 10000 nM |
| CN(C)c1ccc(C(c2ccc(N(C)CCO)cc2)c2cc([N+](=O)[O-])ccc2Cl)cc1 (stereo not shown) [Example 42, 4'-dimethylamino-4"-(N-methyl-N-(2-hydroxyethyl)amino)-2-chloro-5-nitrotriphenylmethane] | 187 nM |
| CNc1ccc(C(c2ccc(NC)cc2)c2cc([N+](=O)[O-])ccc2Cl)cc1 [Example 23, 4',4" bis(methylamino)-2-chloro-5-nitrotriphenylmethane] | 624 nM |
| O=[N+]([O-])c1ccc(Cl)c(C(c2ccc(NCc3ccccc3)cc2)c2ccc(NCc3ccccc3)cc2)c1 [Example 36, 4',4" bis(N-benzylamino)-2-chloro-5-nitrotriphenylmethane] | 2590 nM |
| CN(C)c1ccc(C(Sc2ccccc2)c2cc([N+](=O)[O-])ccc2Cl)cc1 (stereo not shown) [Example 54, phenyl-[(4'-dimethylaminophenyl)-(2-chloro-5-nitrophenyl)methyl]thioether] | 2590 nM |
| CNc1ccc(C(c2ccc(N(C)C)cc2)c2cc([N+](=O)[O-])ccc2Cl)cc1 (stereo not shown) [Example 39, 4'-dimethylamino-4"-methylamino-2-chloro-5-nitrotriphenylmethane] | 510 nM |
| CN(C)c1ccc(C(Oc2ccccc2)c2cc([N+](=O)[O-])ccc2Cl)cc1 (stereo not shown) [Example 52, phenyl-[(4'-dimethylaminophenyl)-(2-chloro-5-nitrophenyl)methyl] ether] | 698 nM |
| CNc1ccc(C(c2ccc(NC)cc2)c2cc(Cl)ccc2Cl)cc1 [Example 27, 4',4" bis(methylamino)-2,5-dichlorotriphenylmethane] | 318 nM |
